This is an account of results in patent US10316017B2, “COT modulators and methods of use thereof” (Gilead Sciences, Inc., priority 2015, dated 2019).

Molecules are shown by their SMILES. Read-outs that look alike come from different tables or passages of the source.

In assay [1] the test system is TNFα production in LPS-stimulated human monocytes. As to the kind of experiment: Cot Monocyte TNFα Cell Based Assay. The settings on record: Homo sapiens, Monocyte, read-out: EC50 TNF. The essentials:
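5,000 cells/well; cmpd 1 h, 37 °C, 0.5% DMSO final; LPS 50 pg/ml, 4 h, 37 °C; media TNFα by HTRF sandwich (cryptate/XL665), RT overnight; % control vs unstimulated/stimulated wells.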

For assay [2], the target named is T1, human Cot catalytic domain (30-397 amino acids) (Homo sapiens, UniProt P41279).
T1 construct: Purified recombinant human Cot catalytic domain (30-397 amino acids) was purchased from Cama Biosciences; purchased Cama Biosciences (so in the source)
As to the kind of experiment: High Throughput Cot Biochemical Assay (KinEASE TR-FRET). The settings on record: read-out: IC50 HTRF. Put shortly:
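First, purified human Cot (aa 30-397) at 5 nM phosphorylates an XL665-labeled STK3 peptide (1 μM) at 400 μM ATP, pH 7.0, 0.1% DMSO. Then a europium-conjugated phospho-specific antibody binds the product, giving the TR-FRET signal.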
On the technique in general: In TR-FRET formats the signal depends on donor and acceptor labels being close together.

Where [3] appears, read: TNFα in LPS-stimulated human monocytes.
The mark [4] stands for this setting: Cot KinEASE TR-FRET (HTRF) biochemical assay, 400 μM ATP.
The mark [5] stands for this setting: LPS-stimulated human monocytes, TNFα TR-FRET.
Setting [6] is: Cot KinEASE TR-FRET, 400 μM ATP.
Where [7] appears, read: Cot biochemical HTRF (KinEASE TR-FRET) assay.

T1 sequence (P41279 30-397): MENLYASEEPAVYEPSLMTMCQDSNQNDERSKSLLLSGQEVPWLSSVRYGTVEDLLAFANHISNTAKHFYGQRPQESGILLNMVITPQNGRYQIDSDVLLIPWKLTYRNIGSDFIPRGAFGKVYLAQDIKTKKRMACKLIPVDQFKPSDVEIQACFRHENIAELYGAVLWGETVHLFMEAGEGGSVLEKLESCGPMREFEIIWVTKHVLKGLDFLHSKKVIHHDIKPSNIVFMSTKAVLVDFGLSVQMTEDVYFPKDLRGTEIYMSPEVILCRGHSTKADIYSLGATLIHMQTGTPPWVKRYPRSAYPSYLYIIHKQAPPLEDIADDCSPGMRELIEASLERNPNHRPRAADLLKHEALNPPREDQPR

Take `[2H][C@](Nc1cc(C#N)c2ncc(C#N)c(NCC(C)(C)C)c2c1)(c1ccc(F)cc1)c1cn(C2CC2)nn1` [Example 284, (S)-6-(((1-cyclopropyl-1H-1,2,3-triazol-4-yl)(4-fluorophenyl)methyl-d)amino)-4-(neopentylamino) quinoline-3,8-dicarbonitrile]: the EC50 in assay [1] (setting [3]) is 52 nM. Further, the 50% inhibitory concentration (IC50) in assay [2] (setting [4]) came out at 4 nM.
As for `Cc1c(C#N)cccc1[C@H](Nc1cc(Cl)c2ncc(C#N)c(NCC(C)(C)C)c2c1)c1cn(C2(C(F)F)CC2)nn1` [Example 1012, (S)-8-chloro-6-(((3-cyano-2-methylphenyl)(1-(1-(difluoromethyl)cyclopropyl)-1H-1,2,3-triazol-4-yl)methyl)amino)-4-(neopentylamino)quinoline-3-carbonitrile], the concentration for a half-maximal effect (EC50) in assay [1] (setting [5]) was found to be 36 nM. The IC50 in assay [2] (setting [6]) was 3 nM.
Take `N#Cc1cnc2c(Cl)cc(N[C@@H](c3ccccc3)c3cn([C@@H]4CCNC[C@H]4O)nn3)cc2c1Nc1cccc(Cl)c1` [Example 535, 8-chloro-4-((3-chlorophenyl)amino)-6-(((S)-(1-((3R,4R)-3-hydroxypiperidin-4-yl)-1H-1,2,3-triazol-4-yl)(phenyl)methyl)amino) quinoline-3-carbonitrile]: in assay [1] (setting [3]), the 50% effective concentration (EC50) came to 500 nM. For the same molecule, the IC50 in assay [2] (setting [7]) worked out at 4 nM.
On to `CC(C)(C)N1CCC(n2cc([C@@H](Nc3cc(Cl)c4ncc(C#N)c(Nc5cc(Cl)ccc5Cl)c4c3)c3ccccc3)nn2)CC1` [Example 527, (S)-6-(((1-(1-(tert-butyl)piperidin-4-yl)-1H-1,2,3-triazol-4-yl)(phenyl)methyl)amino)-8-chloro-4-((2,5-dichlorophenyl)amino) quinoline-3-carbonitrile], for which, in assay [1] (setting [3]), the 50% effective concentration (EC50) amounted to 1360 nM. Also, in assay [2] (setting [7]), the 50% inhibitory concentration (IC50) was 52 nM.
As for `[2H][C@](Nc1cc(C#C)c2ncc(C#N)c(N[C@H](CC)c3ccccc3)c2c1)(c1ccc(F)cc1)c1cn(C2CC2)nn1` [Compound 30], the concentration for a half-maximal effect (EC50) in assay [1] (setting [3]) was more than 10000 nM. For the same molecule, in assay [2] (setting [4]), the 50% inhibitory concentration (IC50) was 7210 nM.
Regarding `COc1ccc(Nc2c(C#N)cnc3c(Cl)cc(N[C@@H](c4ccccc4)c4cn(C5CCN(C(C)(C)C)CC5)nn4)cc23)cn1` [Example 492, (S)-6-(((1-(1-(tert-butyl)piperidin-4-yl)-1H-1,2,3-triazol-4-yl)(phenyl)methyl)amino)-8-chloro-4-((6-methoxypyridin-3-yl)amino)quinoline-3-carbonitrile], the EC50 in assay [1] (setting [3]) is 966 nM. Besides, in assay [2] (setting [7]), the IC50 came to 65 nM.
With `[2H][C@](Nc1cc(OC)c2ncc(C#N)c(NCC(C)(C)C)c2c1)(c1ccc(F)cc1)c1cn(C2CC2)nn1` [Example 172, (S)-6-(((1-cyclopropyl-1H-1,2,3-triazol-4-yl)(4-fluorophenyl)methyl-d)amino)-8-methoxy-4-(neopentylamino) quinoline-3-carbonitrile], in assay [1] (setting [3]), the EC50 came out at 1640 nM. In addition, the IC50 in assay [2] (setting [4]) is 139 nM.
The corresponding values for `CC[C@@H](Nc1c(C#N)cnc2c(Cl)cc(N[C@@H](c3ccc(F)cc3)c3cn(C4(C(F)(F)F)CC4)nn3)cc12)c1ccccc1` [Example 379, 8-chloro-6-(((S)-(4-fluorophenyl)(1-(1-(trifluoromethyl)cyclopropyl)-1H-1,2,3-triazo1-4-yl)methyl)amino)-4-(((R)-1-phenylpropyl)amino)quinoline-3-carbonitrile] are 191 nM and 30 nM.
For the molecule `CC(C)(C)N1CCC(n2cc([C@@H](Nc3cc(Cl)c4ncc(C#N)c(Nc5ccc(F)cc5)c4c3)c3ccc(Cl)cc3)nn2)CC1` [Example 766, (S)-6-(((1-(1-(tert-butyl)piperidin-4-yl)-1H-1,2,3-triazol-4-yl)(4-chlorophenyl)methyl)amino)-8-chloro-4-((4-fluorophenyl)amino)quinoline-3-carbonitrile], the half-maximal effective concentration (EC50) in assay [1] (setting [3]) was 1770 nM. In assay [2] (setting [7]), the IC50 is 41 nM.
The like results for `Cn1cc([C@@H](Nc2cc(Cl)c3ncc(C#N)c(Nc4ccc(F)c(Cl)c4)c3c2)c2cccc(CN3CCCC3)c2)nn1` [Example 841, (S)-8-chloro-4-((3-chloro-4-fluorophenyl)amino)-6-(((1-methyl-1H-1,2,3-triazol-4-yl)(3-(pyrrolidin-1-ylmethyl)phenyl)methyl)amino) quinoline-3-carbonitrile] were, in that order, 141 nM and 8 nM.
On to `CN(C)C1CN(C(=O)c2cccc([C@H](Nc3cc(Cl)c4ncc(C#N)c(Nc5ccc(F)c(Cl)c5)c4c3)c3cn(C4CCN(C(C)(C)C)CC4)nn3)c2)C1` [Example 622, (S)-6-(((1-(1-(tert-butyl)piperidin-4-yl)-1H-1,2,3-triazol-4-yl)(3-(3-(dimethylamino)azetidine-1-carbonyl)phenyl)methyl)amino)-8-chloro-4-((3-chloro-4-fluorophenyl)amino)quinoline-3-carbonitrile], for which the concentration for a half-maximal effect (EC50) in assay [1] (setting [3]) came to 851 nM. Further, in assay [2] (setting [7]), the IC50 came to 5 nM.
On to `[2H][C@@](Nc1cc(C#N)c2ncc(C#N)c(NCC(C)(C)C)c2c1)(c1cn(C2CC2)nn1)c1ccccc1Cl` [Example 152, (S)-6-(((2-chlorophenyl) (1-cyclopropyl-1H-1,2,3-triazol-4-yl)methyl-d)amino)-4-(neopentylamino) quinoline-3,8-dicarbonitrile], for which the concentration giving a half-maximal response (EC50) in assay [1] (setting [3]) came out at 213 nM. Also, in assay [2] (setting [4]), the IC50 amounted to 7 nM.
`CC(C)(C)N1CCC(n2cc([C@@H](Nc3cc(Cl)c4ncc(C#N)c(NC5CC6CCC5C6)c4c3)c3ccccc3)nn2)CC1` (stereo partly drawn) [Example 596, 4-(bicyclo[2.2.1]heptan-2-ylamino)-6-(((S)-(1-(1-(tert-butyl)piperidin-4-yl)-1H-1,2,3-triazol-4-yl)(phenyl)methyl)amino)-8-chloroquinoline-3-carbonitrile]: in assay [1] (setting [3]), the EC50 came out at 3050 nM. Moreover, in assay [2] (setting [7]), the half-maximal inhibitory concentration (IC50) was 33 nM.
As for `[2H][C@](Nc1cc(Cl)c2ncc(C#N)c(Nc3cnc(F)c(F)c3)c2c1)(c1ccc(F)cc1)c1cn(Cc2ccccc2)nn1` [Example 342, (S)-6-(((1-benzyl-1H-1,2,3-triazol-4-yl)(4-fluorophenyl)methyl-d)amino)-8-chloro-4-((5,6-difluoropyridin-3-yl)amino)quinoline-3-carbonitrile], the EC50 in assay [1] (setting [3]) was 1230 nM. Moreover, the IC50 in assay [2] (setting [4]) amounted to 64 nM.
The like results for `[2H][C@](Nc1cc(Br)c2ncc(C#N)c(N[C@H](CC)c3ccccc3)c2c1)(c1ccc(F)cc1)c1cn(C2CC2)nn1` [Example 288, 8-bromo-6-(((S)-(1-cyclopropyl-1H-1,2,3-triazol-4-yl)(4-fluorophenyl)methyl-d)amino)-4-(((R)-1-phenylpropyl)amino)quinoline-3-carbonitrile] were, in that order, 130 nM and 6 nM.
As for `Cc1c(-c2cc[nH]n2)cccc1[C@H](Nc1cc(Cl)c2ncc(C#N)c(NCC(C)(C)C)c2c1)c1cn(C2(C(F)(F)F)CC2)nn1` [Example 1163, (S)-8-chloro-6-(((2-methyl-3-(1H-pyrazol-3-yl)phenyl)(1-(1-(trifluoromethyl)cyclopropyl)-1H-1,2,3-triazol-4-yl)methyl)amino)-4-(neopentylamino)quinoline-3-carbonitrile], the EC50 in assay [1] (setting [5]) worked out at 463 nM. In addition, the half-maximal inhibitory concentration (IC50) in assay [2] (setting [6]) was determined as 19 nM.
Take `CC(C)(C)N1CCC(n2cc([C@@H](Nc3cc(Cl)c4ncc(C#N)c(Nc5ccc(F)c(Cl)c5)c4c3)c3cccc(C(N)=O)c3)nn2)CC1` [Example 673, (S)-3-((1-(1-(tert-butyl)piperidin-4-yl)-1H-1,2,3-triazol-4-yl)((8-chloro-4-((3-chloro-4-fluorophenyl)amino)-3-cyanoquinolin-6-yl)amino)methyl)benzamide]: in assay [1] (setting [3]), the EC50 was determined as 1550 nM. Besides, the IC50 in assay [2] (setting [7]) was found to be 2 nM.
As to `CC(C)(C)N1CCC(n2cc([C@@H](Nc3cc(Cl)c4ncc(C#N)c(Nc5cc(F)cc(Cl)c5)c4c3)c3ccc(Cl)cc3)nn2)CC1` [Example 696, (S)-6-(((1-(1-(tert-butyl)piperidin-4-yl)-1H-1,2,3-triazol-4-yl)(4-chlorophenyl)methyl)amino)-8-chloro-4-((3-chloro-5-fluorophenyl)amino)quinoline-3-carbonitrile], the EC50 in assay [1] (setting [3]) was 3290 nM. Moreover, the concentration for half-maximal inhibition (IC50) in assay [2] (setting [7]) came out at 85 nM.
In the case of `CC(C)(C)CNc1c(C#N)cnc2c(Cl)cc(N[C@H](c3cn(C4CC4)nn3)c3cccc4ccccc34)cc12` [Example 1003, (S)-8-chloro-6-(((1-cyclopropyl-1H-1,2,3-triazol-4-yl)(naphthalen-1-yl)methyl)amino)-4-(neopentylamino)quinoline-3-carbonitrile], the half-maximal effective concentration (EC50) in assay [1] (setting [5]) was 227 nM. Also, the IC50 in assay [2] (setting [6]) came out at 19 nM.
As to `CC(C)(C)CNc1c(C#N)cnc2c(C#N)cc(N[C@H](c3cn(C4(C#N)CCC4)nn3)c3ccccc3Cl)cc12` [Example 952, (S)-6-(((2-chlorophenyl)(1-(1-cyanocyclobutyl)-1H-1,2,3-triazol-4-yl)methyl)amino)-4-(neopentylamino)quinoline-3,8-dicarbonitrile], in assay [1] (setting [5]), the concentration for a half-maximal effect (EC50) came out at 134 nM. For the same molecule, the IC50 in assay [2] (setting [6]) was 8 nM.
Turning to `CC(C)(C)N1CCC(n2cc([C@@H](Nc3cc(Cl)c4ncc(C#N)c(Nc5ccc(F)c(F)c5)c4c3)c3ccccc3)nn2)CC1` [Example 787, (S)-6-(((1-(1-(tert-butyl)piperidin-4-yl)-1H-1,2,3-triazol-4-yl)(phenyl)methyl)amino)-8-chloro-4-((3,4-difluorophenyl)amino)quinoline-3-carbonitrile], the EC50 in assay [1] (setting [3]) is 362 nM. Besides, the 50% inhibitory concentration (IC50) in assay [2] (setting [7]) was 11 nM.

The EC50 is the concentration that produces a half-maximal response. For orientation: IC50 means the concentration at which inhibition is half-maximal.
